The values that follow come from PMC10778976, “BAY-3827 and SBI-0206965: Potent AMPK Inhibitors That Paradoxically Increase Thr172 Phosphorylation” (International Journal of Molecular Sciences, 2023).

The subject of assay [1] is purified rat liver AMPK. The experiment in a line: Allosteric activation of rat liver AMPK by AMP with and without BAY-3827. The assay is classed as biochemical. An excerpt:
(§1) AMPK assays measured the transfer of radioactivity from labelled ATP to a peptide substrate, which was separated from unreacted ATP by binding to P81 paper. This assay was described previously, except that we used [γ-^33P]ATP rather than [γ-^32P]ATP. The peptide substrate was the AMARA peptide in all experiments other than one, which analyzed allosteric activation by AMP (Figure 2A), when, for technical reasons, the SAMS peptide was used instead. With purified preparations of AMPK, it was assayed in solution, but for assays in cell lysates (Figure 3D and Figure 4D), it was first immunoprecipitated using a mixture of anti-α1 and -α2 antibodies and assayed in resuspended immunoprecipitates. After the initial immunoprecipitation of lysate containing 80 µg of protein, the pellets were washed twice with 1 mL of high salt IP buffer (50 mM Tris-HCL, pH 7.4 at 4 °C, 1 M NaCl, 1 mM EDTA, 1 mM EGTA, 50 mM NaF, 5 mM Na pyrophosphate, 1 mM dithiothreitol, 0.1% (v/v) Triton X-100) and twice with 1 mL of low salt IP buffer (as above but only 150 mM NaCl), followed by a final wash in 1 mL of assay buffer (50 mM Na Hepes, pH7.4, 150 mM NaCl, 1 mM dithiothreitol, 0.02% (v/v) Brij-35). After each wash, the pellet was recovered via centrifugation (16,000× g, 3 min) and then resuspended. The final resuspended pellets from each biological replicate were divided into two aliquots (40 µg lysate protein) to provide technical replicates and assayed as above.

The test system of assay [2] is endogenous AMPK from HEK-293 cells. The assay is described as follows: Activation of dephosphorylated immunoprecipitated AMPK by the LKB1 complex. The class given is biochemical, human. The conditions noted are these: 200 µM. As for the experimental part: AMPK was immunoprecipitated from HEK-293 cell lysate (2.5 mg protein) using a mixture of anti-α1 and -α2 antibodies. After extensive washing, it was incubated in a shaking incubator at 30 °C for 20 min in Hepes buffer with 50 mM MgCl2 and sufficient PPM1A to yield about 90% inactivation (total volume of 250 µL). The reaction was terminated by adding 1 mL of IP buffer and, after additional washing in the same buffer, aliquots equivalent to 80 µg of lysate protein were incubated in a shaking incubator at 30 °C for 10 min in Hepes buffer with […] and 5 mM MgCl2, with or without a limiting amount of LKB1:STRADα:MO25α complex (0.5 µg) in the presence or absence of 200 µM AMP or the indicated concentration of BAY-3827 or SBI-0206965 (total volume of 50 µL). The reaction was terminated by adding 1 mL of IP buffer and, after additional washing in the same buffer and a final wash into Hepes buffer, AMPK activity was determined using kinase assays as above.

Assay [3] has the same test system. The assay is described as follows: Protection of immunoprecipitated AMPK against inactivation by PP2Cα (PPM1A). The conditions noted are these: 200 µM. The assay is classed as biochemical, human. As for the experimental part:
AMPK was immunoprecipitated from HEK-293 cell lysate (2.5 mg of lysate protein) using a mixture of anti-α1 and -α2 antibodies. After extensive washing as in Section 4.5, aliquots equivalent to 80 µg of lysate protein were incubated in a shaking incubator at 30 °C for 10 min in Hepes buffer (50 mM Na Hepes, pH 7.4, 150 mM NaCl, 1 mM dithiothreitol, 0.02% (w/v) Brij-35) with 50 mM MgCl2 and sufficient PPM1A to yield about 80% inactivation, in the presence or absence of 200 µM AMP or the indicated concentration of BAY-3827 or SBI-0206965 (total volume 50 µL). The reaction was terminated by adding 1 mL of IP buffer (50 mM Tris/HCl, pH 7.4 at room temperature, 150 mM NaCl, 1 mM EDTA, 1 mM EGTA, 5 mM Na pyrophosphate, 50 mM NaF, 1 mM dithiothreitol, 0.1% (v/v) Triton X-100) and, after additional washing in the same buffer and a final wash into Hepes buffer, AMPK activity was determined using kinase assays as above.

Assay [4] concerns 110 kinases. The arrangement: method as in ref 27 = [27]; 27. International Centre for Kinase Profiling Kinase Profiling Inhibitor Database Available online: https://www.kinase-screen.mrc.ac.uk/kinase-inhibitors (accessed on 14 November 2023). The conditions noted are these: 10 µM, screen of 110 kinases; cited from earlier work.
In assay [5] the test system is 71 kinases. The arrangement: method as in PMID 17850214. The conditions noted are these: 1 µM, screen against 71 kinases; cited from earlier work.
Assay [6] addresses AMPK. The arrangement: method as in PMID 28625738. The conditions noted are these: read-out: Ki, competitive with ATP; cited from earlier work.
Assay [7] deals with T1, “naïve” (unphosphorylated), bacterially expressed human α1β1γ1 complex (Homo sapiens, UniProt Q13131+Q9Y478).
T1 construct: (His)6
The assay is described as follows: Allosteric activation of naïve (unphosphorylated) α1β1γ1 complex by MK-8722 with and without BAY-3827. The assay is classed as biochemical.
Text: as §1

Assay [8] has as its system GBF1 (Thr1337) phosphorylation in U2OS cells. The assay is described as follows: GBF1 phosphorylation in U2OS cells (Western blot). The class given is cell-based, human. As to conditions: 3 µM. The protocol:
(§2) T-Rex U2OS cells carrying a Flp Recombinase Target (FRT) site were generated as described previously and grown in Dulbecco’s Modified Eagle’s Medium (DMEM) supplemented with 10% (v/v) FBS and 1% (v/v) penicillin/streptomycin.
(§3) Cells were lysed rapidly in situ on culture plates using ice-cold lysis medium containing phosphatase inhibitors, as described previously.
(§4) SDS-PAGE was performed using precast NuPAGE Tris-acetate 3–8% gradient polyacrylamide gels in Tris-acetate running buffer when analyzing ACC, GBF1, or Raptor, or NuPAGE Bis-Tris 4–12% gradient polyacrylamide gels in the MOPS buffer system (ThermoFisher Scientific, Waltham, MA, USA) for other proteins (unless stated otherwise). Proteins were transferred to nitrocellulose membranes using the iBlot 2 system (ThermoFisher Scientific). Membranes were enhanced if necessary using SuperSignal Western Blot Enhancer (ThermoFisher Scientific), then blocked for 1 h in Li-Cor Odyssey blocking buffer. The membranes were probed with the appropriate primary antibody ([…]) overnight at 4 °C. Detection was performed using secondary antibody or streptavidin probe (for total ACC) coupled to IR 680 or IR 800 dye, and the membranes were scanned using the LICOR Odyssey IR imager. Protein concentrations were determined by Coomassie Blue binding with bovine serum albumin as a standard. The cellular levels of AMP and ATP were determined via direct perchloric acid extraction from cells, with LC:MS used to estimate the levels of each nucleotide.

Assay [9] deals with human AMPK (α2β1γ1 complex). The conditions noted are these: control compound; cited from earlier work.
The subject of assay [10] is acetyl-CoA carboxylase (ACC, Ser80) phosphorylation in U2OS cells. The experiment in a line: ACC phosphorylation in U2OS cells (Western blot). The assay is classed as cell-based, human. As to conditions: 3 µM. As for the experimental part:
as §2, §3, §4
(A western blot detects proteins with antibodies after separation by electrophoresis.)

Assay [11] has as its system Raptor (Ser792) phosphorylation in U2OS cells. The experiment in a line: Raptor phosphorylation in U2OS cells (Western blot). The class given is cell-based, human. As to conditions: 3 µM. The protocol: as §2, §3, §4
Where [12] appears, read: in the presence of 30 nM BAY-3827.

T1 sequence (Q13131 whole entry): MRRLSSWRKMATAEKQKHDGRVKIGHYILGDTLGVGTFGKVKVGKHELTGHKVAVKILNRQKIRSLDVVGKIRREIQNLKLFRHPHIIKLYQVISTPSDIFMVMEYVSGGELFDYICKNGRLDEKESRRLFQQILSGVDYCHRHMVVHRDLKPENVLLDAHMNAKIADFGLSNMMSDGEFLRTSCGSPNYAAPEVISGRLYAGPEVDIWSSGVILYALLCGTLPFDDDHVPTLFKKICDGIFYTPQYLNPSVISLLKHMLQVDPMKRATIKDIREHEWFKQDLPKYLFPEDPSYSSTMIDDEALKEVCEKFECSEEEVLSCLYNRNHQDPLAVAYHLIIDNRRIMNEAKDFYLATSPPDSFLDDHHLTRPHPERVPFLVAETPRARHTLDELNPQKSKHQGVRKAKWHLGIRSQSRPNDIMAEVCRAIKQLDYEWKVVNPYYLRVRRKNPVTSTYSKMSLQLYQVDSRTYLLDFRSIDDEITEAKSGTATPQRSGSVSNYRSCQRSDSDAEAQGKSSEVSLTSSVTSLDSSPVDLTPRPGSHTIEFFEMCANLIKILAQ
T1 sequence (Q9Y478 2-270): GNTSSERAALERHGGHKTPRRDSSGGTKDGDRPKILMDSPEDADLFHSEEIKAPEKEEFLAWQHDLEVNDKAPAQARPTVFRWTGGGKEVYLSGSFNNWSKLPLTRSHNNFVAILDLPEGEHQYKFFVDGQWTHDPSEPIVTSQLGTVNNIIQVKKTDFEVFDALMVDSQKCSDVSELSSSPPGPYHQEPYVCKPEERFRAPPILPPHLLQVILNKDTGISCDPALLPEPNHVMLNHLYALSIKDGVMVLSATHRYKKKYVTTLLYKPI
T1 sequence (P54619 whole entry partner): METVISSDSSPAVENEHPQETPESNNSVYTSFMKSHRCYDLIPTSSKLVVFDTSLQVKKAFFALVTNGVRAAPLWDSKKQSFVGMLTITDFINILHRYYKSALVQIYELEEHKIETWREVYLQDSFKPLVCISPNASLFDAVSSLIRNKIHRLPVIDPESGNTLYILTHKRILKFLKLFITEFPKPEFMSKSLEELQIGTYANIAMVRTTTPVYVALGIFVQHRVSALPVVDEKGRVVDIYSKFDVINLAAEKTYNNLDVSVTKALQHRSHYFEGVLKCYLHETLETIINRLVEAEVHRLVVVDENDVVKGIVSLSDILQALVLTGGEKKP

For orientation: EC50 means the midpoint of the concentration-response curve. What is called IC50 is the midpoint of a concentration-inhibition curve. Regarding `Nc1ncnc2c1ncn2[C@@H]1O[C@H](COP(=O)(O)O)[C@@H](O)[C@H]1O` [AMP], the “maximal activation by AMP” value in assay [1] (setting [12]) was found to be 2.7 fold; in assay [1] (without BAY-3827), 2.9 fold. In assay [1] (without BAY-3827), this compound displayed an EC50 of 5.9 µM. Further, the IC50 in assay [1] (without BAY-3827, read-out: IC50 for inhibition by high AMP) came to 1800 µM. In addition, the “promotion of activation by LKB1” value in [2] is above 2 fold. Also, the “protection against inactivation by PPM1A” value in assay [3] was “substantial protection”.

As for `c1cc(-c2cnn3cc(-c4ccc(OCCN5CCCCC5)cc4)cnc23)ccn1` [compound C, dorsomorphin], the “number of kinases inhibited to a greater extent than AMPK” value in [4] is given as “no less than 30”; in assay [5], 9.

As a reminder, the Ki is the equilibrium dissociation constant of an inhibitor or competing ligand from its target. Take `CN(C)S(=O)(=O)c1ccc2c(c1)/C(=C/c1cc3c([nH]1)CCCC3)C(=O)N2` [SU6656]: the inhibition constant Ki in assay [6] was 0.17 µM.

MK-8722: the “maximal activation by MK-8722” value in assay [7] (setting [12]) stood at 6.7 fold. In [7] (without BAY-3827), it took 1.1 µM to reach a half-maximal effect (EC50) and the “maximal activation by MK-8722” value worked out at 11 fold.

On to `CC1=C(C#N)C(c2ccc3c(c2)c(NC(=O)c2ccccc2C)nn3C)C(C#N)=C(C)N1` [BAY-974], for which, in assay [8], the “elimination of MK-8722-stimulated GBF1 phosphorylation” value was “not”. Besides, the “inhibition of AMPK” value in [9] is “did not inhibit”. Further, the “elimination of MK-8722-stimulated ACC phosphorylation” value in [10] was “not”. Also, the “elimination of MK-8722-stimulated Raptor phosphorylation” value in assay [11] is “not”.
